These are literature values, as cited in patent US20250090614A1, “COMPOSITIONS AND METHODS FOR IMPROVING LUNG FUNCTION” (priority 2023, published 2025).

Series [1] has as its system Idiopathic pulmonary fibrosis (IPF). Particulars: Dasatinib and Quercetin given together, pilot study, Justice et al. 2019; cited from earlier work.
A further series deals with senescent lung cells. Particulars: mouse model, Palazzo et al. 2023; cited from earlier work.

For the compound `O=c1c(O)c(-c2ccc(O)c(O)c2)oc2cc(O)cc(O)c12` [Quercetin], the “physical dysfunction in Idiopathic pulmonary fibrosis (IPF)” value in series [1] is listed as “showed promise”. Take `COC(=O)C1=C(C)NC(C)=C(C(=O)OC2CCCN(Cc3ccccc3)C2)C1c1cccc([N+](=O)[O-])c1` (stereo not drawn) [Benidipine]: in the series on senescent lung cells, the lung emphysema entry is on record as “ameliorates” and the senescent lung cells result is on record as “decrease”.
